Consider 6 compounds from patent publication EP0345153A1, “Affinity markers for hormonal steroid receptors, their use in hormonoradio therapy and as imaging agents of hormone-dependent cancers” (LA REGION WALLONNE, priority 1988, dated 1989).

The target in experiment [1] is T1, récepteurs nucléaires de l'oestradiol d'utérus de brebis (Ovis aries, UniProt A0ACI6Q0N8).
T1 sequence (A0ACI6Q0N8 1-596): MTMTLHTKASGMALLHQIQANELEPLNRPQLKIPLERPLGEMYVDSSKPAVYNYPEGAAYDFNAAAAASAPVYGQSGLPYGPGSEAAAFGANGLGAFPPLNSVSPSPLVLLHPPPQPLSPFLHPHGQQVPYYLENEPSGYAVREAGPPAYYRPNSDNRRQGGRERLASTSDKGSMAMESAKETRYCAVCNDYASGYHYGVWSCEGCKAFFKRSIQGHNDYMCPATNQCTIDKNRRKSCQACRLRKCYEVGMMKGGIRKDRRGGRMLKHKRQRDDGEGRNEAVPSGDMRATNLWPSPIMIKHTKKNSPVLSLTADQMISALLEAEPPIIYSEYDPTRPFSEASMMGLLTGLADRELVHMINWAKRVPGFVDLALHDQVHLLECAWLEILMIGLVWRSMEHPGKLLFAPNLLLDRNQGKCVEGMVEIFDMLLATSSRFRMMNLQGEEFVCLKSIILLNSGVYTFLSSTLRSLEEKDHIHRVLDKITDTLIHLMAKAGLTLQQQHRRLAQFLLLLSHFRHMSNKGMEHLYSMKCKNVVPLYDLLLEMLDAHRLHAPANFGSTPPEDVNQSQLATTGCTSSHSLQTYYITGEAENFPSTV
Description: Irreversible binding to nuclear estradiol receptors in ewe uterus nuclear extract (exchange with 10 nM tritiated estradiol, protamine sulfate precipitation). The procedure:
La nature irréversible de l'intéraction du composé 12 avec le récepteur a été démontrée en incubant un extrait nucléaire d'utérus de brebis en présence de molarités variables de complexe 12. A la fin du temps . d'incubation, l'hormone libre, présente dans le milieu, est éliminée par traitement au charbon dextran. Les fractions d'extrait nucléaire sont ensuite incubées à 20°C pendant 17 h. en présence de 10 nM d'oestradiol tritié. La fraction d'oestradiol tritiée liée (qui représente la quantité de récepteur qui n'a pas été marquée de façon covalente) est déterminée après précipitation des fractions liées au sulfate de protamine (9b). Les résultats sont rassemblés dans le tableau suivant

The test system of experiment [2] is récepteur de l'oestradiol. Description: Relative binding affinity (A.R.L) for the estradiol receptor. As to conditions: vis-à-vis du récepteur de l'oestradiol. From the text:
Dans cette optique, des composés tels que 7 et 8 sont préparés (9b). Ils portent des petits clusters en 17a-et couvrent une gamme de valeurs de PKR+ de -6 pour 7 à +3 pour 8.

Experiment [3] concerns récepteur de l'oestradiol. As to conditions: cited from earlier work.
In experiment [4] the target is T2, Récepteur des glucocorticoîdes (Homo sapiens, UniProt P04150).
T2 sequence (P04150 1-777): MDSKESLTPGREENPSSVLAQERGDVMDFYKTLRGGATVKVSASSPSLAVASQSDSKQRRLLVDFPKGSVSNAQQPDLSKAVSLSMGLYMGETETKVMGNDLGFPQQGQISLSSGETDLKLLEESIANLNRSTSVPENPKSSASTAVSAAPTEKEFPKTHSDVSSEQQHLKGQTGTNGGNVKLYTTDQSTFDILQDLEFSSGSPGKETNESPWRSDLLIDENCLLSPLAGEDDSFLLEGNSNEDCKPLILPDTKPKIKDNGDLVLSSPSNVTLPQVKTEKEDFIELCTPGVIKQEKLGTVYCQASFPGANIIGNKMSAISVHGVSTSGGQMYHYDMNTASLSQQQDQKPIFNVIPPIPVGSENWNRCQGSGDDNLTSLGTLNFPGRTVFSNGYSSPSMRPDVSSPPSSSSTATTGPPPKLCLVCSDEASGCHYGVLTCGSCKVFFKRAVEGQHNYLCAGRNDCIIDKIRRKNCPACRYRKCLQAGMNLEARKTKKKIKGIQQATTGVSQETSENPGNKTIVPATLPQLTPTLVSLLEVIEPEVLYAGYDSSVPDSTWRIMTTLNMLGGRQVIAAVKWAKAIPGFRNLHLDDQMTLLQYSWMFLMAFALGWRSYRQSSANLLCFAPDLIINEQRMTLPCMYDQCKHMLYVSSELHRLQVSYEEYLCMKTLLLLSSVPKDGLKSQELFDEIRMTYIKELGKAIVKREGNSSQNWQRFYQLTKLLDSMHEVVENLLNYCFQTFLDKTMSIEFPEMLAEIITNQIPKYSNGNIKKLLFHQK
As to conditions: whole cells; cited from earlier work.

The target in experiment [5] is T3, Récepteur de la progestérone (Homo sapiens, UniProt P06401).
T3 sequence (P06401 1-933): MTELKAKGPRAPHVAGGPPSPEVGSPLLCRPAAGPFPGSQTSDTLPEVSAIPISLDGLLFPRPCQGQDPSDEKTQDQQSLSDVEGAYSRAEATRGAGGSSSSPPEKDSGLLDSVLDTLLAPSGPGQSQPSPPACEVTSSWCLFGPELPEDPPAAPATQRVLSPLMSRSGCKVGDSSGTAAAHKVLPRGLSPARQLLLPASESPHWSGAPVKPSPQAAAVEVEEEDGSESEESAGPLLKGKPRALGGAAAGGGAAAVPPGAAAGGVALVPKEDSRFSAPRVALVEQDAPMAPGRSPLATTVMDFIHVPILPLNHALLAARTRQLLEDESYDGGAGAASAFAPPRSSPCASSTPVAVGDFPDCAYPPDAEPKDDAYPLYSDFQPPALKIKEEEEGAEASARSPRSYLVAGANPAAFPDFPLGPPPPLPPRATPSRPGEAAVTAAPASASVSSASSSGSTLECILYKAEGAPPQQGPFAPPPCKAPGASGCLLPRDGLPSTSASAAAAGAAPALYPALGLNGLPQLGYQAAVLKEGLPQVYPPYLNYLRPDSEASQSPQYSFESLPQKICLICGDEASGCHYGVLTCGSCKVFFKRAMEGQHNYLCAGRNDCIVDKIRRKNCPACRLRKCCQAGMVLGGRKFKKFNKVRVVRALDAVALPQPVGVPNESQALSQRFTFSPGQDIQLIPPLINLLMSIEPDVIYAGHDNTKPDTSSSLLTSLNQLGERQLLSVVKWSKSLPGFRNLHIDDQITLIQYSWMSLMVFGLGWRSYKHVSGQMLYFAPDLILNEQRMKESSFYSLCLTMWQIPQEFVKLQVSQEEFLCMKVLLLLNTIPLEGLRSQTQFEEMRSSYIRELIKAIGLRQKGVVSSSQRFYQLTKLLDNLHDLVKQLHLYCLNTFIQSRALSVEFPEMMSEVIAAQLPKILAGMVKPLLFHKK
The following applies: photochemically activated, after 1H; cited from earlier work.

In the case of `CC12CCC3c4ccc(O)cc4CCC3C1CCC2(O)[c-]1cccc1.[Fe+2].c1cc[cH-]c1` (stereo not drawn) [compound 12, 17α-Ferrocényl-17β-oestradiol], the “% d'inhibition de la liaison de l'oestradiol” value is listed as 50% in experiment [1] (incubation molarity 2 nM), 71% in experiment [1] (incubation molarity 5 nM) and 81% in experiment [1] (incubation molarity 10 nM). Moreover, in experiment [2], the “affinité relative de liaison (A.R.L)” value was determined as 13%.

On to `C[C@]12CC[C@@H]3c4ccc(O)cc4CC[C@H]3[C@@H]1CC[C@@]2(O)c1ccccc1` [[17α-C6H5]-17β-oestradiol], for which the “affinité relative de liaison (A.R.L)” value in experiment [2] was determined as 25%.

For `C[C@]12C[C@H](CCl)[C@@H]3c4ccc(O)cc4CC[C@H]3[C@@H]1CC[C@@H]2O` [compound 6, chlorométhyl 11β-oestradiol], the “marqueur d'affinité du récepteur de l'oestradiol” value in experiment [3] was “n'en étant pas un”.

Consider azide de l'hexestrol [compound 3], for which, in experiment [3] (photochemical route), the “efficacité d'inactivation” value was 10-15%.

Take Dexaméthasone-mésylate-21 [compound 2]: the “liaison non-spécifique” value in experiment [4] is given as “Taux élevé de liaison non-spécifique”.

As for `CCC(=O)[C@@]1(C)CC[C@H]2[C@@H]3CCC4=CC(=O)CCC4=C3CC[C@@]21C` [compound 1, R5020], in experiment [5], the Marquage was 15%.
